Consider 3 compounds from patent US20260000669A1, “TREATMENT REGIMEN FOR AUTOIMMUNE DISEASES AND INFLAMMATORY DISEASES” (Merck Patent GmbH, priority 2022, published 2026).

For assay [1] the following is noted: relapsing MS patients; cited from earlier work.
The subject of assay [2] is SARS-CoV-2. The settings on record: MS patients, 2 to 4 weeks after second dose of mRNA COVID-19 vaccine; cited from earlier work.
Assay [3] relates to SARS-CoV-2. The class given is in vivo, human.
For assay [4] the following is noted: mouse model of RA, orally administered; cited from earlier work.
For assay [5] the following is noted: mouse model of SLE, orally administered; cited from earlier work.
The subject of assay [6] is SARS-CoV-2.
Source text: The clinical study NCT02975349 is a phase II, randomized, placebo-controlled trial to evaluate the safety and efficacy of evobrutinib (M2951) in subjects with relapsing multiple sclerosis (RMS). […] The study was composed of a screening period of 4 weeks, a double blinded treatment period of 48 weeks, with an optional open-label extension (OLE) period of 312 weeks, and a safety follow-up period of 4 weeks post-treatment.
Patients were randomized 1:1:1:1: to receive placebo, oral evobrutinib 25 mg once-daily (QD), 75 mg QD, 75 mg twice-daily (BID), or open-label dimethyl fumarate. Patients who received placebo during the first 24 weeks of the DBP, were switched to evobrutinib 25 mg QD until the end of the double-blind period (i.e., 48 weeks). Patients participating in the OLE after the DBP received EVO 75 mg QD and then, after a mean of 49.8 weeks, switched to EVO 75 mg BID.
For the analysis of pre-vaccination, post-vaccination and post-booster vaccination S1/S2 IgG antibody levels, plasma samples were selected according to the following criteria: • Pre-vaccination: sample taken at the last doctor's visit of the patient before the date when the first COVID-19 vaccine dose was administered • post-vaccination: sample taken at the first doctor's visit of the patient that took place at least 28 days after a complete vaccination cycle (as defined by the manufacturer) was administered (for example, in case of the mRNA COVID vaccine of VAC-OLE I, at least 28 days after the date when the second dose of the mRNA COVID vaccine was administered) • post-booster vaccination: sample taken in the first doctor's visit of the patients that took place at least 7 days after the date when the booster vaccination was administered
A total of 24 patients, fulfilling the following criteria, were included in the analysis and constituted the VAC-OLE I analysis set: • Subjects who were in the OLE and received evobrutinib 75 mg BID, and • had 2 doses of mRNA vaccine against COVID reported as concomitant medication, and • signed the Informed Consent for the vaccination analysis.
Subjects were administered the two doses of vaccine during the course of the study based on investigator's judgement. Of the 24 vaccinated patients: • 20 received the mRNA vaccine by BioNTech/Pfizer • 4 patients received the mRNA vaccine by Moderna.
SARS-CoV-2 antibody levels were determined using the LIAISON® SARS-CoV-2 S1/S2 IgG assay (DiaSorin, Inc); an indirect sandwich chemiluminescent immunoassay that qualitatively detects IgG antibodies to SARS-CoV-2. […] Briefly, magnetic particles coated with recombinant S1 and S2 SARS-CoV-2 proteins were incubated with patients' plasma samples, calibrator samples or control samples. After washing away unbound material, a mouse monoclonal anti-human IgG antibody linked to an isoluminol derivative was added. Following another incubation and wash step, the starter reagents were added triggering a flash chemiluminescence reaction. The resulting light signal, representative of the amount of bound isoluminol-antibody conjugate, was measured by a photo multiplier as relative light units (RLU) and was indicative of the presence of IgG S1/S2 antibodies to SARS-CoV-2 virus. Test results are assessed qualitatively as positive or negative. The lower limit of quantification (LLoQ) in this assay was 3.8 AU/mL. In line with FDA guidance, values below a cutoff of 15 AU/mL (i.e. about 4× above the LLoQ for the assay) were considered as a negative readout.
The primary endpoint of this study was defined as fold changes in levels of S1/S2 IgG antibodies from pre- to post-vaccination.
The mark [7] stands for this setting: all participants (N=45), VAC-OLE II, evobrutinib 75 mg BID.
Setting [8] is: booster subgroup (N=14), mRNA booster, VAC-OLE II.
Setting [9] is: participants that received mRNA vaccines (37), VAC-OLE II.
Setting [10] is: participants that received non-mRNA vaccines (8), VAC-OLE II.
The mark [11] stands for this setting: seronegative subgroup (N=32), VAC-OLE II.
The mark [12] stands for this setting: seropositive subgroup (N=13), VAC-OLE II.
Setting [13] is: overall VAC-OLE I population (N=24), evobrutinib 75 mg BID.
Setting [14] is: seronegative subgroup (19 patients), VAC-OLE I.
Setting [15] is: seropositive subgroup (5 patients), VAC-OLE I.

Like-named read-outs stand apart in the source and are kept apart here.

As to `C=CC(=O)N1CCC[C@@H](n2c(=O)n(-c3ccc(Oc4ccccc4)cc3)c3c(N)nccc32)C1` [tolebrutinib, reference compound], the “results in RMS phase II trials” value in assay [1] is reported as “positive results”.
As for “ocrelizumab: B and/or T cell receptor directed antibody; a disease modifying treatment for multiple sclerosis”, the “S1/S2 IgG antibody levels” value in assay [2] was “very low”.
As to `C=CC(=O)N1CCC(CNc2ncnc(N)c2-c2ccc(Oc3ccccc3)cc2)CC1` [evobrutinib, 1-[4-({[6-amino-5-(4-phenoxyphenyl)pyrimidin-4-yl]amino}methyl)piperidin-1-yl]prop-2-en-1-one], the “participants with >30-fold induction of S1/S2 IgG antibody levels” value in assay [3] (21 of 45 participants, VAC-OLE II) turned out to be 47%. Further, the “participants with >10-fold increase of S1/S2 IgG antibody levels” value in assay [3] (38 of 45 participants, VAC-OLE II) was 84%. Also, the “S1/S2 IgG antibody geometric mean post-vaccination” value in assay [3] (<8 weeks subgroup, VAC-OLE II) was 672 AU/mL; in assay [3] (>8 week to ≤12 weeks subgroup, VAC-OLE II), 166 AU/mL; in assay [3] (>12 weeks subgroup, VAC-OLE II) it was 142 AU/mL. In addition, the “participants with >30-fold change in antibody levels after vaccination” value in assay [3] (>8 and ≤12 weeks subgroup (7 of 19), VAC-OLE II) came to 37%; in assay [3] (>12 weeks group (2/13), VAC-OLE II), 15%. The “fold increase in anti-COVID-19 antibody levels pre- to post-vaccination” value in assay [3] (all participants (N=45), VAC-OLE II) worked out at 45 fold. For the same compound, the “S1/S2 IgG antibody level after a complete vaccination cycle, geometric mean” value in assay [3] (setting [7]) amounted to 237.8 AU/mL. The “S1/S2 IgG antibody level pre-vaccination, geometric mean” value in assay [3] (setting [7]) is 9.0 AU/mL. Also, the “fold change in the geometric mean of S1/S2 IgG antibody” value worked out at 17.7 in assay [3] (assessed >8 week to ≤12 weeks after complete vaccination cycle, VAC-OLE II); 17.8 in assay [3] (assessed >12 weeks after complete vaccination cycle, VAC-OLE II); 69.7 in assay [3] (assessed ≤8 weeks after complete vaccination cycle, VAC-OLE II). In addition, the “S1/S2 IgG antibody levels after booster vaccination compared to levels after the complete vaccination cycle” value in assay [3] (booster subgroup (N=14), VAC-OLE II) was “Higher”. Further, the “geometric mean fold change from post-vaccination to post-booster” value in assay [3] (setting [8]) came out at 6.3. Further, the “geometric mean fold change from pre-vaccination to post-booster” value in assay [3] (setting [8]) amounted to 214. The “response to COVID vaccination compared with individuals not under BTK inhibitor treatment” value in assay [3] (conclusion of Example 2, comparison with published data) is recorded as “comparably to healthy individuals”. The entries for the “post-vaccination S1/S2 IgG antibody geometric mean” value in assay [3] (setting [9]) and in assay [3] (setting [10]) were 247.7 AU/mL and 197.1 AU/mL, respectively. In addition, the “pre-vaccination S1/S2 IgG antibody geometric mean” value is 8.5 AU/mL in assay [3] (setting [9]) and 12.1 AU/mL in assay [3] (setting [10]). Further, in assay [3] (setting [11]), the “S1/S2 IgG antibody post-vaccination geometric mean level” value is 133.6 AU/mL. Besides, the “S1/S2 IgG antibody values prior to vaccination (majority of participants, lower limit of quantification)” value in assay [3] (setting [11]) was found to be 3.8 AU/mL. In addition, in assay [3] (setting [12]), the “S1/S2 IgG antibody geometric mean level after a complete vaccination cycle” value turned out to be 984.4 AU/mL. Moreover, the “S1/S2 IgG antibody pre-vaccination geometric mean level” value in assay [3] (setting [12]) is 55.5 AU/mL. The “results in RMS phase II trials” value in assay [1] is “positive results”. Besides, the “efficacy (reduction of disease severity and histological damage)” value in assay [4] and in assay [5] was “good efficacy” throughout. In addition, the “S1/S2 IgG antibody level, geometric mean, after second vaccination” value in assay [6] (setting [13]) was 209.1 AU/mL. Also, the “S1/S2 IgG antibody level, geometric mean, before first vaccination” value in assay [6] (setting [13]) is 6.7 AU/mL. The “S1/S2 IgG antibody level post-vaccination, geometric mean” value in assay [6] (sample collected >12 weeks after second vaccination, VAC-OLE I) was determined as 74; in assay [6] (sample collected between 8 and 12 weeks after second dose, VAC-OLE I), 264; in assay [6] (sample collected less or equal to 8 weeks after second vaccination, VAC-OLE I), 383 AU/mL. The “geometric mean fold change of S1/S2 IgG antibody levels” value in assay [6] (seronegative patients, VAC-OLE I) turned out to be 36.0; in assay [6] (seropositive patients, VAC-OLE I), 18.0. For the same compound, in assay [6] (setting [14]), the “S1/S2 IgG antibody level prior to vaccination (majority of patients, lower limit of quantification)” value is “around 3.8 AU/ml”. The “S1/S2 IgG antibody level, geometric mean post-vaccination” value in assay [6] (setting [14]) was found to be 155.8 AU/mL. Besides, the “S1/S2 IgG antibody level, geometric mean after the second vaccination” value in assay [6] (setting [15]) is 639.6 AU/mL. Moreover, in assay [6] (setting [15]), the “S1/S2 IgG antibody level, geometric mean pre-vaccination” value is 35.5 AU/mL.
